Values after ≈ are worked out from the molar mass of the structure shown.

What is called IC50 is the concentration needed to halve the response being measured.

Common to all, as to format: functional, cell-based
One experiment concerns A549. Description: Cytotoxicity against human A549 cells assessed as growth inhibition after 24 hrs by MTT assay. To be noted: A549, 24 h. In general terms: Formazan colour is commonly taken as a measure of viable cells.
The next experiment has as its system MCF7. Description: Cytotoxicity against human MCF7 cells assessed as growth inhibition after 24 hrs by MTT assay. To be noted: MCF7, 24 h.
A further experiment has as its system OVCAR-3. The experiment in a line: Cytotoxicity against human OVCAR3 cells assessed as growth inhibition after 24 hrs by MTT assay. To be noted: OVCAR-3, 24 h.

Regarding `CN1CCCC[C@H]1/C=C/c1ccc(O)cc1`, the IC50 in the experiment on A549 worked out at 3.45 µg/mL (≈ 15.9 µM); in the experiment with MCF7, 1.51 µg/mL (≈ 6.95 µM); in the experiment on OVCAR-3, 1.94 µg/mL (≈ 8.93 µM).
Consider `C(=C\[C@@H]1CCCCN1)/c1ccccc1`, for which the IC50 in the experiment with A549 came out at 9.99 µg/mL (≈ 53.3 µM); with MCF7 it was 9.15 µg/mL (≈ 48.9 µM); with OVCAR-3 it was 10.5 µg/mL (≈ 55.9 µM).
As to `Cc1ccc(/C=C/[C@@H]2CCCCN2)cc1`, the IC50 in the experiment with A549 was determined as 8.56 µg/mL (≈ 42.5 µM); in the experiment with MCF7 it was 5.35 µg/mL (≈ 26.6 µM); in the experiment on OVCAR-3 it was 8.48 µg/mL (≈ 42.1 µM).
As for `COc1ccc(/C=C/[C@@H]2CCCCN2)cc1`, the IC50 is 4.33 µg/mL (≈ 19.9 µM) in the experiment with A549, 3.57 µg/mL (≈ 16.4 µM) in the experiment with MCF7 and 3.31 µg/mL (≈ 15.2 µM) with OVCAR-3.
Consider `COc1ccccc1/C=C/[C@@H]1CCCCN1`, for which the IC50 in the experiment on A549 stood at 4.94 µg/mL (≈ 22.7 µM); in the experiment with MCF7, 3.81 µg/mL (≈ 17.5 µM); with OVCAR-3, 4.78 µg/mL (≈ 22 µM).
Take `Cc1cccc(C)c1/C=C/[C@@H]1CCCCN1`: the IC50 is 7.28 µg/mL (≈ 33.8 µM) in the experiment with A549, 4.29 µg/mL (≈ 19.9 µM) in the experiment on MCF7 and 6.27 µg/mL (≈ 29.1 µM) in the experiment with OVCAR-3.
In the same order, the values of `CCc1ccc(/C=C/[C@@H]2CCCCN2)cc1` are 5.94 µg/mL (≈ 27.6 µM), 4.13 µg/mL (≈ 19.2 µM) and 5.07 µg/mL (≈ 23.5 µM).
With `O=[N+]([O-])c1ccc(/C=C/[C@@H]2CCCCN2)cc1`, the IC50 in the experiment with A549 amounted to 3.27 µg/mL (≈ 14.1 µM); with MCF7 it was 2.15 µg/mL (≈ 9.26 µM); with OVCAR-3, 1.02 µg/mL (≈ 4.39 µM).
Turning to `CC(=O)c1ccc(/C=C/[C@@H]2CCCCN2)cc1`, the IC50 worked out at 3.69 µg/mL (≈ 16.1 µM) in the experiment on A549, 2.7 µg/mL (≈ 11.8 µM) with MCF7 and 2.18 µg/mL (≈ 9.51 µM) in the experiment with OVCAR-3.
For the molecule `FC(F)(F)c1ccc(/C=C/[C@@H]2CCCCN2)cc1`, the IC50 came out at 2.82 µg/mL (≈ 11 µM) in the experiment on A549, 1.25 µg/mL (≈ 4.9 µM) with MCF7 and 0.99 µg/mL (≈ 3.88 µM) with OVCAR-3.

The values are drawn from ChEMBL document CHEMBL3112536, “Pd-N-heterocyclic carbene catalyzed synthesis of piperidine alkene-alkaloids and their anti-cancer evaluation” (Bioorg Med Chem Lett, 2014).
